Assay results reported in ChEMBL document CHEMBL1157033, “Developing a complete pharmacology for AMPA receptors: a perspective on subtype-selective ligands” (Bioorg Med Chem, 2010).
pEC50, pIC50, pKi: −log10 of the molar value.

Assays:
Glutamate receptor 2 [1] = target: T1, Glutamate receptor 2 (Homo sapiens, UniProt P42262); experiment: Activity at human recombinant GluA2 flop isoform expressed in HEK203 cells assessed as blocked of receptor desensitization
Glutamate receptor 1 [2] = target: T2, Glutamate receptor 1 (Homo sapiens, UniProt P42261); experiment: Activity at human recombinant GluA1 receptor flip isoform expressed in HEK293 cells assessed as effect on glutamate-induced calcium flux by Fluo-4/AM staining-based fluorescence assay; format: cell-based
T2 sequence (P42261 whole entry, canonical isoform): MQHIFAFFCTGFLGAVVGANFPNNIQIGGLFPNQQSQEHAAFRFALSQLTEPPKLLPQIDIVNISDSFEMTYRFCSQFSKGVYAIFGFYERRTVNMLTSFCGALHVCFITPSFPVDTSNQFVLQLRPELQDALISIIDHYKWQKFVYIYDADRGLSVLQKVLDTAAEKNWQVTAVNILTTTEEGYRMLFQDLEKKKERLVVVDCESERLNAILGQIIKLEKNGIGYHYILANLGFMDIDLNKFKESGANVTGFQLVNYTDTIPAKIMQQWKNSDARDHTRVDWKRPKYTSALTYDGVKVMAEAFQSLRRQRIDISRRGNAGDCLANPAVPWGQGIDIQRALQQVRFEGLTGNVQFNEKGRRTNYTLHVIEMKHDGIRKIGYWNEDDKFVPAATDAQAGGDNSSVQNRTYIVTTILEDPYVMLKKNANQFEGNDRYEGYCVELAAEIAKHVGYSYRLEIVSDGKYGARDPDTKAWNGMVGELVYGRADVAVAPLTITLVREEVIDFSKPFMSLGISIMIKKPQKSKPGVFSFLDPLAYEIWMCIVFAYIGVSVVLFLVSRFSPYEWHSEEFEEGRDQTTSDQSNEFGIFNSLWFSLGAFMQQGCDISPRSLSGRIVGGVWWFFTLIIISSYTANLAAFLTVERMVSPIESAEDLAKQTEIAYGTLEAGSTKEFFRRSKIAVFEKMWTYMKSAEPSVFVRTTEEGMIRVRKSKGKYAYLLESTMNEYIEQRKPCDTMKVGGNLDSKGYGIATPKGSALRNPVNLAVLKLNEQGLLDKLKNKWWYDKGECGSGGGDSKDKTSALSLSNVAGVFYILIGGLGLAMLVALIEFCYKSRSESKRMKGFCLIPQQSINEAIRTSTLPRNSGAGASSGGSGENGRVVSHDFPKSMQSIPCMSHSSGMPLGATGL

Glutamate receptor 2 [3] = target: T1, Glutamate receptor 2; experiment: Activity at human recombinant GluA2 receptor flop isoform expressed in HEK293 cells assessed as effect on glutamate-induced calcium flux by Fluo-4/AM staining-based fluorescence assay; format: cell-based
Glutamate receptor 2 [4] = target: T1, Glutamate receptor 2; experiment: Activity at human recombinant GluA2 flip isoform expressed in HEK203 cells assessed as blocked of receptor desensitization
[5] = Activity at human recombinant GluA4 receptor flip isoform expressed in HEK293 cells assessed as effect on glutamate-induced calcium flux by Fluo-4/AM staining-based fluorescence assay; format: cell-based
Glutamate receptor 3 [6] = target: T3, Glutamate receptor 3 (Homo sapiens, UniProt P42263); experiment: Activity at human recombinant GluA3 receptor flip isoform expressed in HEK293 cells assessed as effect on glutamate-induced calcium flux by Fluo-4/AM staining-based fluorescence assay; format: cell-based
T3 sequence (P42263 whole entry, canonical isoform): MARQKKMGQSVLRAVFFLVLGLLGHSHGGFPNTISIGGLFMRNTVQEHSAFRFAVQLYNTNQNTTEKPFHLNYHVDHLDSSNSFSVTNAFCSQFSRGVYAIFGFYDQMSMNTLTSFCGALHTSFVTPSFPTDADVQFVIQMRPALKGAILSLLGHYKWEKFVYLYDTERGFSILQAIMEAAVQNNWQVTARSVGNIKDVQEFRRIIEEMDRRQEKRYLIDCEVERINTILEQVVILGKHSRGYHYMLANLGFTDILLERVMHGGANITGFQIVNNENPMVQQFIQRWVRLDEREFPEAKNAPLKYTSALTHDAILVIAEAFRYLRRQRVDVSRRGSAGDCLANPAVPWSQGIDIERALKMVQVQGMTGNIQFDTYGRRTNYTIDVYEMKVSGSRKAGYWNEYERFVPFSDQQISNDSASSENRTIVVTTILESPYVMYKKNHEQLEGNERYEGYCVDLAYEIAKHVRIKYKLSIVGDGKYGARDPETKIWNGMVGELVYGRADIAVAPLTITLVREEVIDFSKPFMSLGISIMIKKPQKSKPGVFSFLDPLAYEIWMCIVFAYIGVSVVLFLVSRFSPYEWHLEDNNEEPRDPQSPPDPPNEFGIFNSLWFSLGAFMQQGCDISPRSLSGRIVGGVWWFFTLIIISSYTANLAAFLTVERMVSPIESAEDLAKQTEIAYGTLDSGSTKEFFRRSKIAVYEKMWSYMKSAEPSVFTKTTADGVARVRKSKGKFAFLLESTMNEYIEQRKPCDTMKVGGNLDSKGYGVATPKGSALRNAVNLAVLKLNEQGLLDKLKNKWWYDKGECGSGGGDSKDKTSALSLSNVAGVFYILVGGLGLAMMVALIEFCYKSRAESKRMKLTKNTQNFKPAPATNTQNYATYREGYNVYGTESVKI

Glutamate receptor 2 [7] = target: T1, Glutamate receptor 2; experiment: Activity at human recombinant GluA2 receptor flip isoform expressed in HEK293 cells assessed as effect on glutamate-induced calcium flux by Fluo-4/AM staining-based fluorescence assay; format: cell-based
Glutamate receptor 1 [8] = target: T2, Glutamate receptor 1; experiment: Activity at recombinant GluA1 receptor flop isoform expressed in Xenopus oocytes assessed as effect of 100 uM kainate-induced current by patch clamp electrophysiological assay; format: cell-based, Oocyte
Glutamate receptor 4 = Glutamate receptor 4 (Homo sapiens, UniProt P48058); experiment: Inhibition of GluA4 receptor expressed in Xenopus oocytes assessed as inhibition of […] uM kainate-induced current by patch clamp electrophysiological assay; format: cell-based, Oocyte
Glutamate receptor 4, sequence (P48058 whole entry): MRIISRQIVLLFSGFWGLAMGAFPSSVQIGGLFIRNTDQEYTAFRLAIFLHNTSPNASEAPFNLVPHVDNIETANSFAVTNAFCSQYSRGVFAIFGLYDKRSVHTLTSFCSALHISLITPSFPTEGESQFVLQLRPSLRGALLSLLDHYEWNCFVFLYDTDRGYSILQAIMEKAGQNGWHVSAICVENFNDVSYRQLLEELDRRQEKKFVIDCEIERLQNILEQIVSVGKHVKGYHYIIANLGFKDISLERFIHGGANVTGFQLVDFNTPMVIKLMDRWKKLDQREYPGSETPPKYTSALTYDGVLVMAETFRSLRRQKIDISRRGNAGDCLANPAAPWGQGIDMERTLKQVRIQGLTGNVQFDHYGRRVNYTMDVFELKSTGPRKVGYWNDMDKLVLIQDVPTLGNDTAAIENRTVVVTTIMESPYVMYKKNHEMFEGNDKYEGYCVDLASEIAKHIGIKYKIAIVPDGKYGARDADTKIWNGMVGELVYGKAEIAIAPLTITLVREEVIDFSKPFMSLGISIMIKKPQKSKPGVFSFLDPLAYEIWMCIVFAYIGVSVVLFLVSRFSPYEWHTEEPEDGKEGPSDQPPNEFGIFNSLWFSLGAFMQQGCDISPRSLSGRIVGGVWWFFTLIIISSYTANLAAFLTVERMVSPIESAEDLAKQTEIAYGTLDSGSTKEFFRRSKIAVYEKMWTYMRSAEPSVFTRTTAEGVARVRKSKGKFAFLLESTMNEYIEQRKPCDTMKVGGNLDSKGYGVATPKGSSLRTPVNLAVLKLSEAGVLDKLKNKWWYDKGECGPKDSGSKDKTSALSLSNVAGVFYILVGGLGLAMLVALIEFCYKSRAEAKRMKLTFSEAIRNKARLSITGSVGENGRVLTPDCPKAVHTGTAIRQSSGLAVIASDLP

Glutamate receptor 1 [9] = target: T2, Glutamate receptor 1; format: cell-based, Oocyte
[10] = target: T4, Glutamate receptor AMPA 1/2 (Homo sapiens, UniProt P42261+P42262); experiment: Activity at recombinant GluA1A2 receptor flop isoform expressed in Xenopus oocytes assessed as effect of 100 uM kainate-induced current by patch clamp electrophysiological assay; format: cell-based, Oocyte
T4 sequence (P42262 whole entry, canonical isoform): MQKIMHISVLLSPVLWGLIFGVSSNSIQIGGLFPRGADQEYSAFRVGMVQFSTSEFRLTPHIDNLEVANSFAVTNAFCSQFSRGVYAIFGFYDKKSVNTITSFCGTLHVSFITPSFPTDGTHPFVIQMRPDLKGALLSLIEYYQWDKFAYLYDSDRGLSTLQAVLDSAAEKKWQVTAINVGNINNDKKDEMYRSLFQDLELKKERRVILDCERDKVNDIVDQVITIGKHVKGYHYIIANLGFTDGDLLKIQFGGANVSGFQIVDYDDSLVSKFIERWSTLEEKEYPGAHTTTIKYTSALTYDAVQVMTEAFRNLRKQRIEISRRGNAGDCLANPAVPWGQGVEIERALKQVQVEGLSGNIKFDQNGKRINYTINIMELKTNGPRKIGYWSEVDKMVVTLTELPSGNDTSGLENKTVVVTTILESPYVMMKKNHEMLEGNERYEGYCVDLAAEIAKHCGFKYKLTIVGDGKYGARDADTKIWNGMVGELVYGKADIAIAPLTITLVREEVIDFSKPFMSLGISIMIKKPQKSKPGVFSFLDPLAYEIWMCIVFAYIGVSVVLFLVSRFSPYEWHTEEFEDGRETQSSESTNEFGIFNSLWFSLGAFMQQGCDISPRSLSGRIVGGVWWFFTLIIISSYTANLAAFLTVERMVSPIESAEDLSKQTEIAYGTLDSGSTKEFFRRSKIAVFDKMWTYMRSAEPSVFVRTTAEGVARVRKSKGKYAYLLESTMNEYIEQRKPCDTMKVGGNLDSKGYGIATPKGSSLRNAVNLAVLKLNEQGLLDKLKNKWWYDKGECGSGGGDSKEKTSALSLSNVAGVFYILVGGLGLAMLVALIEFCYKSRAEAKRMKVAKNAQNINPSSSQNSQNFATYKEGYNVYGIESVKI
T4 sequence (P42261 whole entry, canonical isoform): as the sequence (P42261 whole entry, canonical isoform) above

Glutamate receptor 3 [11] = target: T3, Glutamate receptor 3; experiment: Inhibition of recombinant GluA3 receptor flip isoform expressed in Xenopus oocytes assessed as inhibition of […] uM kainate-induced current by patch clamp electrophysiological assay; format: cell-based, Oocyte
[12] = target: Glutamate receptor AMPA 1/2 (Rattus norvegicus, UniProt P19490+P19491); format: cell-based, Oocyte
Glutamate receptor AMPA 1/2 (Rattus norvegicus, UniProt P19490+P19491), sequence (P19491 whole entry): as the sequence (P42262 whole entry, canonical isoform) above, with M191T, T291A, R764G, A852P counted along it
Glutamate receptor AMPA 1/2 (Rattus norvegicus, UniProt P19490+P19491), sequence (P19490 whole entry): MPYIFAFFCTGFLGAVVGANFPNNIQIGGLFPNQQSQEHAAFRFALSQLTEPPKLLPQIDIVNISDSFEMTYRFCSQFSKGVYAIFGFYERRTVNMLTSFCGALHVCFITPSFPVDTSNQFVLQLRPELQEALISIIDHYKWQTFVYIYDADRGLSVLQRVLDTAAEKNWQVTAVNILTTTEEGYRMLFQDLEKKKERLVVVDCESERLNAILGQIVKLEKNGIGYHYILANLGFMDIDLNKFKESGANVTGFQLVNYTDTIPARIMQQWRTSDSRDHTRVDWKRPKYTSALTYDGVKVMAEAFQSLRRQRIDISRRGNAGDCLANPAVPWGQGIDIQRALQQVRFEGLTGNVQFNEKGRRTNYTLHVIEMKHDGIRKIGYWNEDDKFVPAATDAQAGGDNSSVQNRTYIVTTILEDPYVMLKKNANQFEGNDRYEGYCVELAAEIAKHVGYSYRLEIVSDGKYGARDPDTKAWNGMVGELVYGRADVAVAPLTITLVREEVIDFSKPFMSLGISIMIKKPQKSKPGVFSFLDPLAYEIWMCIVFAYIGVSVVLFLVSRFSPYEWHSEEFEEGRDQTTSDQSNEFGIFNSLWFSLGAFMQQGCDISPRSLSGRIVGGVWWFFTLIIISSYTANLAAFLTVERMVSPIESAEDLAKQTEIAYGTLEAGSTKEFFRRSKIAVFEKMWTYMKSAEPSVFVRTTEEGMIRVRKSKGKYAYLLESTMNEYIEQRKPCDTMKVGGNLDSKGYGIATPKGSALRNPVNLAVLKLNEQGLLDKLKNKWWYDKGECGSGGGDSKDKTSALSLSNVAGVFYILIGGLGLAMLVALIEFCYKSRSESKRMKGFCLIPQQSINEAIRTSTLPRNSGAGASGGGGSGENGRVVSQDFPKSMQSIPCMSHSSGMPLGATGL

Glutamate receptor 3 [13] = target: T3, Glutamate receptor 3; experiment: Inhibition of GluA3 receptor expressed in Xenopus oocytes assessed as inhibition of […] uM kainate-induced current by patch clamp electrophysiological assay; format: cell-based, Oocyte
Glutamate receptor 1 [14] = target: T2, Glutamate receptor 1; format: cell-based, Oocyte; remark: listed apart in the source
Glutamate receptor 1 [15] = target: Glutamate receptor 1 (Rattus norvegicus, UniProt P19490); format: cell-based, Oocyte
Glutamate receptor 1 (Rattus norvegicus, UniProt P19490), sequence (P19490 whole entry, canonical isoform): as the sequence (P19490 whole entry) above

[16] = Inhibition of recombinant GluA4 receptor flip isoform expressed in Xenopus oocytes assessed as inhibition of […] uM kainate-induced current by patch clamp electrophysiological assay; format: cell-based; conditions: Oocyte
[17] = target: T4, Glutamate receptor AMPA 1/2; format: cell-based, Oocyte
[18] = target: T4, Glutamate receptor AMPA 1/2; experiment: Inhibition of recombinant GluA1A2 receptor flip isoform expressed in Xenopus oocytes assessed as inhibition of […] uM glutamate-induced current; format: cell-based, Oocyte
Glutamate receptor 1 [19] = target: T2, Glutamate receptor 1; experiment: Inhibition of recombinant GluA1 receptor flip isoform expressed in Xenopus oocytes assessed as inhibition of […] uM glutamate-induced current; format: cell-based, Oocyte
Glutamate receptor 3 [20] = target: T3, Glutamate receptor 3; conditions: Oocyte; at 100 µM
Glutamate receptor 2 [21] = target: T1, Glutamate receptor 2; conditions: Oocyte; at 100 µM
[22] = target: T5, Glutamate receptor AMPA 2/3 (Homo sapiens) (UniProt P42263+P42262); conditions: Oocyte; at 100 µM
[23] = target: T6, Glutamate receptor AMPA 1/2 (Homo sapiens) (UniProt P42262+P42261); conditions: Oocyte; at 100 µM
Glutamate receptor 1 [24] = target: T2, Glutamate receptor 1; conditions: Oocyte; at 100 µM
[25] = target: T4, Glutamate receptor AMPA 1/2; experiment: Activity at recombinant GluA1A2 receptor flop isoform expressed in Xenopus oocytes assessed as effect on 300 uM glutamate-induced current; format: cell-based, Oocyte
[26] = target: Glutamate receptor 4 (Rattus norvegicus) (UniProt P19493); experiment: Activity at recombinant GluA4 receptor flip isoform expressed in Xenopus oocytes assessed as potentiation of glutamate-induced current at 100 uM relative to control; conditions: Oocyte
Glutamate receptor 1 [27] = target: T2, Glutamate receptor 1; experiment: Activity at recombinant GluA1 receptor flip isoform expressed in Xenopus oocytes assessed as potentiation of glutamate-induced current at 100 uM relative to control; format: cell-based; conditions: Oocyte
Glutamate receptor 1 [28] = target: T2, Glutamate receptor 1; experiment: Activity at recombinant GluA1 receptor flip isoform expressed in Xenopus oocytes co-expressing gamma2-TARP assessed as effect on 10 uM glutamate-induced current by voltage-clamp electrophysiological assay; format: cell-based, Oocyte
Glutamate receptor 3 [29] = target: T3, Glutamate receptor 3; experiment: Activity at recombinant GluA3 receptor flip isoform expressed in Xenopus oocytes assessed as potentiation of 10 uM AMPA-induced current at 100 uM relative to control; format: cell-based; conditions: Oocyte
Glutamate receptor 1 [30] = target: T2, Glutamate receptor 1; experiment: Activity at recombinant GluA1 receptor flop isoform expressed in Xenopus oocytes assessed as potentiation of glutamate-induced current at 100 uM relative to control; format: cell-based; conditions: Oocyte
[31] = target: T4, Glutamate receptor AMPA 1/2; experiment: Activity at recombinant GluA1A2 receptor flip isoform expressed in Xenopus oocytes assessed as effect on 300 uM glutamate-induced current; format: cell-based, Oocyte
[32] = target: T5, Glutamate receptor AMPA 2/3 (Homo sapiens); experiment: Activity at recombinant GluA2A3 receptor flop isoform expressed in Xenopus oocytes assessed as potentiation of 10 uM AMPA-induced current at 100 uM relative to control; format: cell-based; conditions: Oocyte
Glutamate receptor 1 [33] = target: T2, Glutamate receptor 1; experiment: Activity at recombinant GluA1 receptor flop isoform expressed in Xenopus oocytes assessed as potentiation of 10 uM AMPA-induced current at 100 uM relative to control; format: cell-based; conditions: Oocyte
[34] = target: T6, Glutamate receptor AMPA 1/2 (Homo sapiens); experiment: Activity at recombinant GluA1 receptor flip/GluA2 receptor flop isoform expressed in Xenopus oocytes assessed as potentiation of 10 uM AMPA-induced current at 100 uM relative to control; format: cell-based; conditions: Oocyte
Glutamate receptor 1 [35] = target: T2, Glutamate receptor 1; experiment: Agonist activity at recombinant GluA1 receptor flip isoform expressed in Xenopus oocytes; format: functional, cell-based, Oocyte
Glutamate receptor 3 [36] = target: T3, Glutamate receptor 3; experiment: Activity at recombinant GluA3 receptor flip isoform expressed in Xenopus oocytes assessed as potentiation of glutamate-induced current at 100 uM relative to control; format: cell-based; conditions: Oocyte
Glutamate receptor 3 [37] = target: T3, Glutamate receptor 3; experiment: Activity at recombinant GluA3 receptor flop isoform expressed in Xenopus oocytes assessed as potentiation of 10 uM AMPA-induced current at 100 uM relative to control; format: cell-based; conditions: Oocyte
[38] = Activity at recombinant GluA4 receptor flip isoform expressed in Xenopus oocytes assessed as effect on 300 uM glutamate-induced current; format: cell-based; conditions: Oocyte
[39] = target: T5, Glutamate receptor AMPA 2/3 (Homo sapiens); experiment: Activity at recombinant GluA2 receptor flip/GluA3 receptor flop isoform expressed in Xenopus oocytes assessed as potentiation of 10 uM AMPA-induced current at 100 uM relative to control; format: cell-based; conditions: Oocyte
[40] = target: T6, Glutamate receptor AMPA 1/2 (Homo sapiens); experiment: Activity at recombinant GluA1 receptor flop/GluA2 receptor flip isoform expressed in Xenopus oocytes assessed as potentiation of 10 uM AMPA-induced current at 100 uM relative to control; format: cell-based; conditions: Oocyte
Glutamate receptor 1 [41] = target: T2, Glutamate receptor 1; experiment: Activity at recombinant GluA1 receptor flip isoform expressed in Xenopus oocytes assessed as potentiation of 10 uM AMPA-induced current at 100 uM relative to control; format: cell-based; conditions: Oocyte
[42] = target: T5, Glutamate receptor AMPA 2/3 (Homo sapiens); experiment: Activity at recombinant GluA2 receptor flop/GluA3 receptor flip isoform expressed in Xenopus oocytes assessed as potentiation of 10 uM AMPA-induced current at 100 uM relative to control; format: cell-based; conditions: Oocyte
[43] = target: T6, Glutamate receptor AMPA 1/2 (Homo sapiens); experiment: Activity at recombinant GluA1A2 receptor flop isoform expressed in Xenopus oocytes assessed as potentiation of glutamate-induced current at 100 uM relative to control; format: cell-based; conditions: Oocyte
[44] = Activity at recombinant GluA2A4 receptor flop isoform expressed in Xenopus oocytes assessed as effect on 300 uM glutamate-induced current; format: cell-based; conditions: Oocyte
[45] = target: T6, Glutamate receptor AMPA 1/2 (Homo sapiens); experiment: Activity at recombinant GluA1A2 receptor flop isoform expressed in Xenopus oocytes assessed as potentiation of 10 uM AMPA-induced current at 100 uM relative to control; format: cell-based; conditions: Oocyte
[46] = target: T6, Glutamate receptor AMPA 1/2 (Homo sapiens); experiment: Activity at recombinant GluA1A2 receptor flip isoform expressed in Xenopus oocytes assessed as potentiation of glutamate-induced current at 100 uM relative to control; format: cell-based; conditions: Oocyte
[47] = Activity at recombinant GluA2A4 receptor flip isoform expressed in Xenopus oocytes assessed as effect on 300 uM glutamate-induced current; format: cell-based; conditions: Oocyte
Glutamate receptor 1 [48] = target: T2, Glutamate receptor 1; experiment: Activity at recombinant GluA1 receptor flop isoform expressed in Xenopus oocytes co-expressing gamma2-TARP assessed as effect on 10 uM glutamate-induced current by voltage-clamp electrophysiological assay; format: cell-based, Oocyte
Glutamate receptor 2 [49] = target: T1, Glutamate receptor 2; experiment: Activity at recombinant GluA2 receptor flip isoform expressed in Xenopus oocytes co-expressing gamma2-TARP assessed as effect on glutamate/trichloromethiazide-induced current; format: cell-based, Oocyte
Glutamate receptor 1 [50] = target: T2, Glutamate receptor 1; experiment: Activity at recombinant GluA1 receptor flip isoform expressed in Xenopus oocytes co-expressing gamma2-TARP assessed as effect on glutamate/trichloromethiazide-induced current; format: cell-based, Oocyte
Oocyte = conditions: at 0.5 µM
Glutamate receptor 3 [51] = target: T3, Glutamate receptor 3; experiment: Inhibition of recombinant GluA3 receptor flop isoform expressed in Xenopus oocytes assessed as inhibition of […] uM kainate-induced current by patch clamp electrophysiological assay; format: cell-based, Oocyte
Glutamate receptor 1 [52] = target: T2, Glutamate receptor 1; format: cell-based, Oocyte; remark: listed apart in the source
Glutamate receptor 3 [53] = target: T3, Glutamate receptor 3; conditions: Oocyte; at 0.5 µM

T1 sequence (P42262 whole entry, canonical isoform): as the sequence (P42262 whole entry, canonical isoform) above

CC(CNS(=O)(=O)C(C)C)C1CCC(c2ccc(C#N)cc2)CC1 (stereo not given)
pEC50 (Glutamate receptor 2 [1]): 5.84
pEC50 (Glutamate receptor 1 [2]): 5.25
pEC50 (Glutamate receptor 2 [3]): 5.84
pEC50 (Glutamate receptor 2 [4]): 4.82
pEC50 [5]: 6.68
pEC50 (Glutamate receptor 3 [6]): 5.78
pEC50 (Glutamate receptor 2 [7]): 6.82

N=C(N)NCCC[C@H](N)C(=O)NCCCNCCCNCCCCCNC(=O)[C@H](CC(N)=O)NC(=O)Cc1ccc(O)cc1O
pIC50 (Glutamate receptor 1 [8]): 5.47
pIC50 (Glutamate receptor 4): 6.37
pIC50 (Glutamate receptor 1 [9]): 6.46
pIC50 [10]: 3.52
pIC50 (Glutamate receptor 3 [11]): 6.64
pIC50 [12]: 3.52
pIC50 (Glutamate receptor 3 [13]): 6.64
pIC50 (Glutamate receptor 1 [14]): 6.46
pIC50 (Glutamate receptor 1 [15]): 5.47
pIC50 [16]: 6.37
pIC50 [17]: 5.26

CCCC(=O)N[C@@H](Cc1ccc(O)cc1)C(=O)NCCCCCCCNCCCCN
pKi [18]: 5.80
pKi (Glutamate receptor 1 [19]): 6.77
inhibition (Glutamate receptor 3 [20]): 100%
inhibition (Glutamate receptor 2 [21]): 2.1%
inhibition [22]: 2.6%
inhibition [23]: 84.3%
inhibition (Glutamate receptor 1 [24]): 100%

NS(=O)(=O)c1cc2c(cc1Cl)NC(C1CC3C=CC1C3)NS2(=O)=O (stereo not given) [CYCLOTHIAZIDE]
pEC50 [25]: < 4.12
fold change (FC) [26]: 171
fold change (FC) (Glutamate receptor 1 [27]): 103
pEC50 (Glutamate receptor 1 [2]): 4.70
pEC50 (Glutamate receptor 1 [28]): 5.70
fold change (FC) (Glutamate receptor 3 [29]): 3.59
pEC50 (Glutamate receptor 2 [3]): < 4.00
fold change (FC) (Glutamate receptor 1 [30]): 22
pEC50 [31]: 5.18
fold change (FC) [32]: 10.5
fold change (FC) (Glutamate receptor 1 [33]): 1.34
fold change (FC) [34]: 19.9
pEC50 (Glutamate receptor 1 [35]): 6.00
pEC50 [5]: 5.41
fold change (FC) (Glutamate receptor 3 [36]): 69
fold change (FC) (Glutamate receptor 3 [37]): 5.59
pEC50 [38]: 5.23
pEC50 (Glutamate receptor 3 [6]): 4.86
fold change (FC) [39]: 7.18
fold change (FC) [40]: 11.6
fold change (FC) (Glutamate receptor 1 [41]): 5.31
fold change (FC) [42]: 6.83
fold change (FC) [43]: 61
pEC50 (Glutamate receptor 2 [7]): 5.65
pEC50 [44]: < 4.04
fold change (FC) [45]: 3.53
fold change (FC) [46]: 137
pEC50 [47]: 5.30
pEC50 (Glutamate receptor 1 [48]): 5.00

CNC(=O)N1N=C(c2ccc(N)cc2)c2cc3c(cc2CC1C)OCO3 (stereo not given) [GYKI-53655]
pEC50 (Glutamate receptor 2 [49]): 4.00
pEC50 (Glutamate receptor 1 [50]): 4.55

NCCCNCCCCNCCC(=O)NCCCCCNC(=O)[C@H](CC(N)=O)NC(=O)Cc1ccc(O)cc1O [JORO SPIDER TOXIN 3]
inhibition (Oocyte): 82%
pIC50 (Glutamate receptor 3 [51]): 7.52
pIC50 (Glutamate receptor 1 [52]): 7.40
inhibition (Glutamate receptor 3 [53]): 96%
